The values below come from patent US12134611B2, “Compounds and compositions for treating conditions associated with NLRP activity” (Novartis AG, priority 2018, dated 2024).

The target in the assay is T1, hNLRP3 (Homo sapiens, UniProt Q96P20).
T1 construct: THP-1 cells were purchased from the American Type Culture Collection; host or cells: THP-1 cells, PMA-differentiated, stimulated with gramicidin
T1 sequence (Q96P20 whole entry): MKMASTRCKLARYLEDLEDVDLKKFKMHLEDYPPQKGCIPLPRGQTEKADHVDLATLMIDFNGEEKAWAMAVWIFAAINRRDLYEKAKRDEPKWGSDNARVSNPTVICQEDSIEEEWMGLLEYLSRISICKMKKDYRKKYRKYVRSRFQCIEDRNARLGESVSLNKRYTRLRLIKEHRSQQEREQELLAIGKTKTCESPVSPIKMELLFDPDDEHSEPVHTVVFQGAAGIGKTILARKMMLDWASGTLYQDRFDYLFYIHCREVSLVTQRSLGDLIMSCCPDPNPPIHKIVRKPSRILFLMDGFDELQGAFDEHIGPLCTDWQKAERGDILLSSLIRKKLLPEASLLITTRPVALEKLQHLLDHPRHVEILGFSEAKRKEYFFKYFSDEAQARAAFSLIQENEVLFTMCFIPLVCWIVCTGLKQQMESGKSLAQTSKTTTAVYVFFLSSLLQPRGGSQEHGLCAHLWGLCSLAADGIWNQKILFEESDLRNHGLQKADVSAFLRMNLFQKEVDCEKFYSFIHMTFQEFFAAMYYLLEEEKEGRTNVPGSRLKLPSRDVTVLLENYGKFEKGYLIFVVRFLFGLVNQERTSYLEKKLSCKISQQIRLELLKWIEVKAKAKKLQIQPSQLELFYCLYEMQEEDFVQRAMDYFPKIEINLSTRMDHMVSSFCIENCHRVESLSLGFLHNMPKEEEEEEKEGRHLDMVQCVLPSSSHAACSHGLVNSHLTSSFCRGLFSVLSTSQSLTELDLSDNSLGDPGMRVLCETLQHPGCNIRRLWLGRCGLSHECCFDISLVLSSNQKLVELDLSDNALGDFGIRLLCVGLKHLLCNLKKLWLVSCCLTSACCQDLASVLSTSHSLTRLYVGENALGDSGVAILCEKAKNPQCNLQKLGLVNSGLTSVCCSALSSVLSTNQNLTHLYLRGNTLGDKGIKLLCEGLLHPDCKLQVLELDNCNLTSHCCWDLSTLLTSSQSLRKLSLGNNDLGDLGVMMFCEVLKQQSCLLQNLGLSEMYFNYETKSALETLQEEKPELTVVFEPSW
Briefly: IL-1β production in PMA-differentiated THP-1 cells stimulated with gramicidin (hTHP-1 assay). The class given is cell-based. The following applies: read-out: NLRP3 Antagonist, hNLRP3 (THP-1, IL-1b) Normalized: GeoMean IC50. On the procedure:
Procedure 1: IL-1β Production in PMA-Differentiated THP-1 Cells Stimulated with Gramicidin.
THP-1 cells were purchased from the American Type Culture Collection and sub-cultured according to instructions from the supplier. […] Prior to the experiment, compounds were dissolved in dimethyl sulfoxide (DMSO) to generate a 30 mM stock. […] DMSO was backfilled in the plate to achieve a final DMSO assay concentration of 0.37%. The plate was then sealed and stored at room temperature until required.
THP-1 cells were treated with PMA (Phorbol 12-myristate 13-acetate) (20 ng/ml) for 16-18 hours. On the day of the experiment the media was removed and adherent cells were detached with trypsin for 5 minutes.
Procedure 2: IL-1β Production in PMA-Differentiated THP-1 Cells Stimulated with Gramicidin.
THP-1 cells were purchased from the American Type Culture Collection and sub-cultured according to instructions from the supplier. […] Prior to the experiment THP-1 were treated with PMA (Phorbol 12-myristate 13-acetate) (20 ng/ml) for 16-18 hours. Compounds were dissolved in dimethyl sulfoxide (DMSO) to generate a 30 mM stock. On the day of the experiment the media was removed and adherent cells were detached with trypsin for 5 minutes. […] Final DMSO concentration was at 0.37%. Cells were incubated with compounds for 1 hour and then stimulated with gramicidin (5 μM) (Enzo) for 2 hours. Plates were then centrifuged at 340 g for 5 min. Cell free supernatant (40 μL) was collected using a 96-channel PlateMaster (Gilson) and the production of IL-1β was evaluated by HTRF (cisbio).
1. Experimental procedure
1.2 Compound Preparation • Prepare the 3-fold serial dilution of the compounds with DMSO in a 384-well LDV Microplate using TECAN EVO system to generate the compound source plate with 10 concentrations. Top concentration is 30 mM. FIG. 5 depicts the layout of the microplate.
FIG. 5 depicts the layout of the plates: HC: 100 μM CRID3 (MCC950)+5 μM gramicidin LC: 5 μM Gramicidin.
1.5 IL-1β Detection • 1) Homogenize the 5× diluent #5 with a vortex and add 1 volume of stock solution in 4 volumes of distilled water. • 2) Thaw 20× stock solution of anti-IL1β-Cryptate-antibody and anti-IL1β XL-antibody. […] 2. Data Analysis: • 1.
On to `CC(C)(O)c1ccc2c(c1)S(=O)(=NC(=O)Nc1c3c(cc4c1CCC4)CCC3)NC2=O` (racemic) [Compound 127, 1-(1,2,3,5,6,7-hexahydro-s-indacen-4-yl)-3-[6-(2-hydroxypropan-2-yl)-1,3-dioxo-2,3-dihydro-1-^λ-6,2-benzothiazol-1-ylidene]urea], for which the IC50 lay in the range of 0.2 to 1 µM.
The same measure for `O=C(N=S1(=O)NC(=O)c2ccccc21)Nc1c2c(cc3c1CCC3)CCC2` (racemic) [Compound 129, 3-(1,3-dioxo-2,3-dihydro-1-^λ-6,2-benzothiazol-1-ylidene)-1-(1,2,3,5,6,7-hexahydro-s-indacen-4-yl)urea]: 1 to 5 µM; for `CC1(C)CS(=O)(=NC(=O)Nc2c3c(cc4c2CCC4)CCC3)NC1=O` (single isomer, unassigned) [Compound 102a, (S or R)-1-(4,4-dimethyl-1-oxido-3-oxo-1l6-isothiazolidin-1-ylidene)-3-(1,2,3,5,6,7-hexahydro-s-indacen-4-yl)urea]: 0.2 to 1 µM.
In the case of `CC1(C)CS(=O)(=NC(=O)Nc2c3c(cc4c2CCC4)CCC3)NC1=O` (single isomer, unassigned) [Compound 102b, (R or S)-1-(4,4-dimethyl-1-oxido-3-oxo-1l6-isothiazolidin-1-ylidene)-3-(1,2,3,5,6,7-hexahydro-s-indacen-4-yl)urea], the IC50 was 5 to 30 µM.
In the case of `O=C(N=S1(=O)NC(=O)c2ccc(Br)cc21)Nc1c2c(cc3c1CCC3)CCC2` (single isomer, unassigned) [Compound 103a, (R or S)-1-(6-bromo-1-oxido-3-oxo-2,3-dihydro-1l4-benzo[d]isothiazol-1-ylidene)-3-(1,2,3,5,6,7-hexahydro-s-indacen-4-yl)urea], the IC50 was > 30 µM.
The same measure for `O=C(N=S1(=O)NC(=O)c2ccc(Br)cc21)Nc1c2c(cc3c1CCC3)CCC2` (single isomer, unassigned) [Compound 103b, (S or R)-1-(6-bromo-1-oxido-3-oxo-2,3-dihydro-1l4-benzo[d]isothiazol-1-ylidene)-3-(1,2,3,5,6,7-hexahydro-s-indacen-4-yl)urea]: 5 to 30 µM.
Take `CC(C)c1cc2c(c(C(C)C)c1CC(=O)N=S1(=O)NC(=O)c3ccc(C(C)(C)O)cc31)COC2` (single isomer, unassigned) [Compound 104a, (S or R)-2-(4,6-diisopropyl-1,3-dihydroisobenzofuran-5-yl)-N-(6-(2-hydroxypropan-2-yl)-1-oxido-3-oxo-2,3-dihydro-1l4-benzo[d]isothiazol-1-ylidene)acetamide]: the IC50 is > 30 µM.
As for `CC(C)(O)c1ccc2c(c1)S(=O)(=NC(=O)Nc1c3c(nc(C4CC4)c1C1CC1)CCC3)NC2=O` (single isomer, unassigned) [Compound 106a, 1(R or S)-1-(2,3-dicyclopropyl-6,7-dihydro-5H-cyclopenta[b]pyridin-4-yl)-3-(6-(2-hydroxypropan-2-yl)-1-oxido-3-oxo-2,3-dihydro-1l4-benzo[d]isothiazol-1-ylidene)urea], the IC50 was 1 to 5 µM.
With `CC(C)(O)c1ccc2c(c1)S(=O)(=NC(=O)Nc1c3c(nc(C4CC4)c1C1CC1)CCC3)NC2=O` (single isomer, unassigned) [Compound 106b, 1(S or R)-1-(2,3-dicyclopropyl-6,7-dihydro-5H-cyclopenta[b]pyridin-4-yl)-3-(6-(2-hydroxypropan-2-yl)-1-oxido-3-oxo-2,3-dihydro-1l4-benzo[d]isothiazol-1-ylidene)urea], the IC50 is > 30 µM.
Take `CN1Cc2ccccc2S1(=O)=NC(=O)Nc1c2c(cc3c1CCC3)CCC2` (single isomer, unassigned) [Compound 107a]: the IC50 is > 30 µM.
The result for `Cc1c(C(F)(F)F)nc2c(c1NC(=O)N=S1(=O)NC(=O)c3ccc(C(C)(C)O)cc31)CCC2` (single isomer, unassigned) [Compound 108a, (R or S)-1-(6-(2-hydroxypropan-2-yl)-1-oxido-3-oxo-2,3-dihydro-1l4-benzo[d]isothiazol-1-ylidene)-3-(3-methyl-2-(trifluoromethyl)-6,7-dihydro-5H-cyclopenta[b]pyridin-4-yl)urea] reads 0.2 to 1 µM; that for `Cc1c(C(F)(F)F)nc2c(c1NC(=O)N=S1(=O)NC(=O)c3ccc(C(C)(C)O)cc31)CCC2` (single isomer, unassigned) [Compound 108b, (S or R)-1-(6-(2-hydroxypropan-2-yl)-1-oxido-3-oxo-2,3-dihydro-1l4-benzo[d]isothiazol-1-ylidene)-3-(3-methyl-2-(trifluoromethyl)-6,7-dihydro-5H-cyclopenta[b]pyridin-4-yl)urea], > 30 µM; that for `CC(C)(O)c1ccc2c(c1)S(=O)(=NC(=O)Nc1c3c(cc4c1CC4)CCC3)NC2=O` (single isomer, unassigned) [Compound 112a, (R or S)-1-(6-(2-hydroxypropan-2-yl)-1-oxido-3-oxo-2,3-dihydro-1l4-benzo[d]isothiazol-1-ylidene)-3-(2,4,5,6-tetrahydro-1H-cyclobuta[f]inden-3-yl)urea], 0.04 to 0.2 µM.
The same measure for `CC(C)(O)c1ccc2c(c1)S(=O)(=NC(=O)Nc1c3c(cc4c1CC4)CCC3)NC2=O` (single isomer, unassigned) [Compound 112b, (S or R)-1-(6-(2-hydroxypropan-2-yl)-1-oxido-3-oxo-2,3-dihydro-1l4-benzo[d]isothiazol-1-ylidene)-3-(2,4,5,6-tetrahydro-1H-cyclobuta[f]inden-3-yl)urea]: 1 to 5 µM; for `O=C1CCCS(=O)(=NC(=O)Nc2c3c(cc4c2CCC4)CCC3)N1` (single isomer, unassigned) [Compound 113a, (S or R)-1-(1,2,3,5,6,7-hexahydro-s-indacen-4-yl)-3-(1-oxido-3-oxo-1l6,2-thiazinan-1-ylidene)urea]: 0.2 to 1 µM.
The result for `CC(C)(O)c1ccc2c(c1)S(=O)(=NC(=O)Cc1c3c(cc4c1CCC4)CCC3)NC2=O` (single isomer, unassigned) [Compound 115a, (S or R)-2-(1,2,3,5,6,7-hexahydro-s-indacen-4-yl)-N-(6-(2-hydroxypropan-2-yl)-1-oxido-3-oxo-2,3-dihydro-1l4-benzo[d]isothiazol-1-ylidene)acetamide] reads 5 to 30 µM.
In the case of `O=C(N=S1(=O)CCCN1)Nc1c2c(cc3c1CCC3)CCC2` (single isomer, unassigned) [Compound 119a, (R or S)-1-(1,2,3,5,6,7-hexahydro-s-indacen-4-yl)-3-(1-oxido-1l6-isothiazolidin-1-ylidene)urea], the IC50 lay in the range of 5 to 30 µM.
The result for `CC(C)(O)c1ccc2c(c1)C(=O)NS2(=O)=NC(=O)Nc1c2c(cc3c1CCC3)CCC2` (single isomer, unassigned) [Compound 121a, (R or S)-1-(1,2,3,5,6,7-hexahydro-s-indacen-4-yl)-3-(5-(2-hydroxypropan-2-yl)-1-oxido-3-oxo-2,3-dihydro-1l4-benzo[d]isothiazol-1-ylidene)urea] reads 0.2 to 1 µM.
`CC(C)(O)c1ccc2c(c1)C(=O)NS2(=O)=NC(=O)Nc1c2c(cc3c1CCC3)CCC2` (single isomer, unassigned) [Compound 121b, (S or R)-1-(1,2,3,5,6,7-hexahydro-s-indacen-4-yl)-3-(5-(2-hydroxypropan-2-yl)-1-oxido-3-oxo-2,3-dihydro-1l4-benzo[d]isothiazol-1-ylidene)urea]: the IC50 is 5 to 30 µM.
The same measure for `CC(C)(O)c1ccc2c(c1)S(=O)(=NC(=O)Nc1c3c(cc4c1CCC4)CCC3)NC2=O` (single isomer, unassigned) [Compound 127a, (R or S)-1-(1,2,3,5,6,7-hexahydro-s-indacen-4-yl)-3-(6-(2-hydroxypropan-2-yl)-1-oxido-3-oxo-2,3-dihydro-1l4-benzo[d]isothiazol-1-ylidene)urea]: 0.04 to 0.2 µM; for `CC(C)(O)c1ccc2c(c1)S(=O)(=NC(=O)Nc1c3c(cc4c1CCC4)CCC3)NC2=O` (single isomer, unassigned) [Compound 127b, (S or R)-1-(1,2,3,5,6,7-hexahydro-s-indacen-4-yl)-3-(6-(2-hydroxypropan-2-yl)-1-oxido-3-oxo-2,3-dihydro-1l4-benzo[d]isothiazol-1-ylidene)urea]: 5 to 30 µM.
For the molecule `O=C(N=S1(=O)NC(=O)c2ccccc21)Nc1c2c(cc3c1CCC3)CCC2` (single isomer, unassigned) [Compound 129a, 3-[(1R or 1S)-1,3-dioxo-2,3-dihydro-1-^λ-6,2-benzothiazol-1-ylidene]-1-(1,2,3,5,6,7-hexahydro-s-indacen-4-yl)urea], the IC50 was in the range of 0.2 to 1 µM.
